Structures are written as SMILES.

From patent publication US9663513B2, “Pyrimidine PDE10 inhibitors” (Merck Sharp & Dohme Corp., priority 2012, dated 2017) come the findings set out here.

For this test, the target named is human PDE10A2 (Homo sapiens (Human), UniProt Q9Y233). In words: PDE10 fluorescence polarization (IMAP FP) inhibition assay. The class given is biochemical. Particulars: human PDE10A2 from transfected AD293 cells; FAM-labeled cAMP 50 nM; apparent inhibition constant; read-out: PDE10A Ki. The method in brief: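 Cytoplasmic lysate of AD293 cells transiently expressing human PDE10A2 (enzyme level giving 20% conversion) incubated with 50 nM FAM-cAMP in pH 7.2 Tris/MgCl2 buffer, 30 min at room temperature. IMAP binding solution added, FP read after ≥1 h; 10-point 3-fold compound titrations fitted to a four-parameter equation.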
human PDE10A2, sequence (Q9Y233 267-1055): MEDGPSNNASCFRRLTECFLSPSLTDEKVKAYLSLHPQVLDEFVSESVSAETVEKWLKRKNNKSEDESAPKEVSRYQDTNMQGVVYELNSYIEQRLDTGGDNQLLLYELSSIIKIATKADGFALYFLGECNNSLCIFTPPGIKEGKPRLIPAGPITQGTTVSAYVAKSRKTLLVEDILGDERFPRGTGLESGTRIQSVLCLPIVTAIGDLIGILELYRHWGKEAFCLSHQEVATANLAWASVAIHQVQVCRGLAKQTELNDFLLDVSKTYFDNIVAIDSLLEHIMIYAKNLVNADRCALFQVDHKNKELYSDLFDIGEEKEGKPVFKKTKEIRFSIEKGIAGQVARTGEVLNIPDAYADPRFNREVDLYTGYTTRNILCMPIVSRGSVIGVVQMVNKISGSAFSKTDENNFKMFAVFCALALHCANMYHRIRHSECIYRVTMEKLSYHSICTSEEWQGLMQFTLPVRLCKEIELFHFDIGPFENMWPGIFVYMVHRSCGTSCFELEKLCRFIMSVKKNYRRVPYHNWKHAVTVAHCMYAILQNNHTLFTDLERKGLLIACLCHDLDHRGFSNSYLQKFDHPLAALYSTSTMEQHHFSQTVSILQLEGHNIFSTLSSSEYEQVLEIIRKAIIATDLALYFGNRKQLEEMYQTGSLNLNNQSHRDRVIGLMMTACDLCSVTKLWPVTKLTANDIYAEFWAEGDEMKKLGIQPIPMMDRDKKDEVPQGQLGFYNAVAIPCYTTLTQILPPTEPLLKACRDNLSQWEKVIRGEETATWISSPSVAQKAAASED
(Fluorescence polarisation rises when a labelled molecule tumbles more slowly, as on binding a larger partner.)

As for `COc1ccc([C@H]2C[C@@H]2COc2nc(C)ncc2-c2cn(C)nc2C(F)(F)F)nc1` [Example 82, 4-(((1S,2S)-2-(5-methoxypyridin-2-yl)cyclopropyl)methoxy)-2-methyl-5-(1-methyl-3-(trifluoromethyl)-1H-pyrazol-4-yl)pyrimidine], the Ki worked out at 0.2 nM.

`CCc1ccc(-c2cnc(C)nc2OC[C@H]2C[C@@H]2c2ccc(OC)cn2)cn1` [Example 85, 5-(6-ethylpyridin-3-yl)-4-(((1S,2S)-2-(5-methoxypyridin-2-yl)cyclopropyl)methoxy)-2-methylpyrimidine]: the Ki turned out to be 0.86 nM.

Regarding `COc1ccc([C@H]2C[C@@H]2COc2nc(C)ncc2-c2ccc(Br)cn2)nc1` [Example 86, 5-(5-bromopyridin-2-yl)-4-(((1S,2S)-2-(5-methoxypyridin-2-yl)cyclopropyl)methoxy)-2-methylpyrimidine], the Ki was determined as 11.6 nM.

With `COc1ccc([C@H]2C[C@@H]2COc2nc(C)ncc2-c2cc(C(F)(F)F)cnc2Cl)nc1` [Example 87, 5-(2-chloro-5-(trifluoromethyl)pyridin-3-yl)-4-(((1S,2S)-2-(5-methoxypyridin-2-yl)cyclopropyl)methoxy)-2-methylpyrimidine], the Ki came to 0.44 nM.

For `COc1ccc([C@H]2C[C@@H]2COc2nc(C)ncc2-c2cc(Cl)ncc2C(F)(F)F)nc1` [Example 88, 5-(2-chloro-5-(trifluoromethyl)pyridin-4-yl)-4-(((1S,2S)-2-(5-methoxypyridin-2-yl)cyclopropyl)methoxy)-2-methylpyrimidine], the Ki is 0.99 nM.

In the case of `COc1ccc([C@H]2C[C@@H]2COc2nc(C)ncc2-c2ccc(C3(O)CCCC3)nc2)nc1` [Example 89, 1-(5-(4-(((1S,2S)-2-(5-methoxypyridin-2-yl)cyclopropyl)methoxy)-2-methylpyrimidin-5-yl)pyridin-2-yl)cyclopentanol], the Ki came out at 0.06 nM.

For `COc1ccc([C@H]2C[C@@H]2COc2nc(C)ncc2-c2ccc3[nH]ccc3c2)nc1` [Example 90, 5-(4-(((1S,2S)-2-(5-methoxypyridin-2-yl)cyclopropyl)methoxy)-2-methylpyrimidin-5-yl)-1H-indole], the Ki turned out to be 2.13 nM.

In the case of `COc1ccc([C@H]2C[C@@H]2COc2nc(C)ncc2-c2ccc(C3(O)COC3)nc2)nc1` [Example 91], the Ki was determined as 0.16 nM.

With `COc1ccc([C@H]2C[C@@H]2COc2nc(C)ncc2-c2ccc(C3(O)CCC3)nc2)nc1` [Example 92, 1-(5-(4-(((1S,2S)-2-(5-methoxypyridin-2-yl)cyclopropyl)methoxy)-2-methylpyrimidin-5-yl)pyridin-2-yl)cyclobutano1], the Ki was determined as 0.12 nM.

`COc1ccc([C@H]2C[C@@H]2COc2nc(C)ncc2-c2ccc(-c3ncno3)cc2)nc1` [Example 93, 5-(4-(4-(((1S,2S)-2-(5-methoxypyridin-2-yl)cyclopropyl)methoxy)-2-methylpyrimidin-5-yl)phenyl)-1,2,4-oxadiazole]: the Ki came out at 0.15 nM.

For the compound `COc1ccc([C@H]2C[C@@H]2COc2nc(C)ncc2-c2ccc(-c3nc(CCl)no3)cc2)nc1` [Example 94, 3-(chloromethyl)-5-(4-(4-(((1S,2S)-2-(5-methoxypyridin-2-yl)cyclopropyl)methoxy)-2-methylpyrimidin-5-yl)phenyl)-1,2,4-oxadiazole], the Ki was determined as 1.17 nM.

In the case of `COc1ccc([C@H]2C[C@@H]2COc2nc(C)ncc2-c2ccc(-c3nc(CO)no3)cc2)nc1` [Example 95, (5-(4-(4-(((1S,2S)-2-(5-methoxypyridin-2-yl)cyclopropyl)methoxy)-2-methylpyrimidin-5-yl)phenyl)-1,2,4-oxadiazol-3-yl)methanol], the Ki is 0.93 nM.

On to `COc1ccc([C@H]2C[C@@H]2COc2nc(C)ncc2-c2cnc(C(=O)O)cn2)nc1` [Example 96, 5-(4-(((1S,2S)-2-(5-methoxypyridin-2-yl)cyclopropyl)methoxy)-2-methylpyrimidin-5-yl)pyrazine-2-carboxylic acid], for which the Ki came out at 1.26 nM.

Take `COC(=O)c1cnc(-c2cnc(C)nc2OC[C@H]2C[C@@H]2c2ccc(OC)cn2)cn1` [Example 97, methyl 5-(4-(((1S,2S)-2-(5-methoxypyridin-2-yl)cyclopropyl)methoxy)-2-methylpyrimidin-5-yl)pyrazine-2-carboxylate]: the Ki is 9.74 nM.

As to `COc1ccc([C@H]2C[C@@H]2COc2nc(C)ncc2-c2cnc(CO)cn2)nc1` [Example 98, (5-(4-(((1S,2S)-2-(5-methoxypyridin-2-yl)cyclopropyl)methoxy)-2-methylpyrimidin-5-yl)pyrazin-2-yl)methanol], the Ki amounted to 12 nM.

With `COc1ccc([C@H]2C[C@@H]2COc2nc(C)ncc2-c2ccc(C(=O)O)nn2)nc1` [Example 99, 6-(4-(((1S,2S)-2-(5-methoxypyridin-2-yl)cyclopropyl)methoxy)-2-methylpyrimidin-5-yl)pyridazine-3-carboxylic acid], the Ki amounted to 2.68 nM.

In the case of `COc1ccc([C@H]2C[C@@H]2COc2nc(C)ncc2-c2ccc(C(C)(C)O)nn2)nc1` [Example 100, 2-(6-(4-(((1S,2S)-2-(5-methoxypyridin-2-yl)cyclopropyl)methoxy)-2-methylpyrimidin-5-yl)pyridazin-3-yl)propan-2-ol], the Ki was determined as 4.01 nM.

`COc1ccc([C@H]2C[C@@H]2COc2nc(C)ncc2-c2ccc(CO)nn2)nc1` [Example 101, (6-(4-(((1S,2S)-2-(5-methoxypyridin-2-yl)cyclopropyl)methoxy)-2-methylpyrimidin-5-yl)pyridazin-3-yl)methanol]: the Ki turned out to be 11.9 nM.

In the case of `COc1ccc([C@H]2C[C@@H]2COc2nc(C)ncc2-c2ccc(C)nn2)nc1` [Example 102, 3-(4-(((1S,2S)-2-(5-methoxypyridin-2-yl)cyclopropyl)methoxy)-2-methylpyrimidin-5-yl)-6-methylpyridazine], the Ki worked out at 10.3 nM.

Turning to `CNC(=O)c1ccc(-c2cnc(C)nc2OC[C@H]2C[C@@H]2c2ccc(OC)cn2)cn1` [Example 103, 5-(4-(((1S,2S)-2-(5-methoxypyridin-2-yl)cyclopropyl)methoxy)-2-methylpyrimidin-5-yl)-N-methylpicolinamide], the Ki amounted to 2.35 nM.

As to `COc1ccc([C@H]2C[C@@H]2COc2nc(C)ncc2-c2ccc(C(=O)NCC(F)(F)F)nc2)nc1` [Example 104, 5-(4-(((1S,2S)-2-(5-methoxypyridin-2-yl)cyclopropyl)methoxy)-2-methylpyrimidin-5-yl)-N-(2,2,2-trifluoroethyl)picolinamide], the Ki turned out to be 0.67 nM.

In the case of `COc1ccc([C@H]2C[C@@H]2COc2nc(C)ncc2-c2ccc(C(N)=O)nc2)nc1` [Example 105, 5-(4-(((1S,2S)-2-(5-methoxypyridin-2-yl)cyclopropyl)methoxy)-2-methylpyrimidin-5-yl)picolinamide], the Ki worked out at 1.41 nM.

In the case of `COc1ccc([C@H]2C[C@@H]2COc2nc(C)ncc2-c2ccc(C(=O)NCCO)nc2)nc1` [Example 106, N-(2-hydroxyethyl)-5-(4-(((1S,2S)-2-(5-methoxypyridin-2-yl)cyclopropyl)methoxy)-2-methylpyrimidin-5-yl)picolinamide], the Ki came out at 0.64 nM.

For `COc1ccc([C@H]2C[C@@H]2COc2nc(C)ncc2-c2ccc(C(=O)NCCO)cc2)nc1` [Example 107, N-(2-hydroxyethyl)-4-(4-(((1S,2S)-2-(5-methoxypyridin-2-yl)cyclopropyl)methoxy)-2-methylpyrimidin-5-yl)benzamide], the Ki came to 1.06 nM.
